Results: patent US20130089510A1, “OTIC COMPOSITIONS FOR THE TREATMENT OF INFECTIONS OF THE INTERNAL AND EXTERNAL EAR IN MAMMALS” (Foresight Biotherapeutics, Inc., priority 2008, published 2013)

What was measured:
external ear = details: in vivo; cited from earlier work
[1] = Reactivity/compatibility of PVP-I with other active ingredients

consumption of the agent on reaction with PVP-I ([1]; mixed with PVP-I)	Compound	concentration known to be safe for use in the external ear (and inner ear through a ruptured tympanic membrane) (external ear)	available iodine in the PVP-I complex ([1]; with Ketorolac, depending on the ratio between Ketorolac and PVP-I)
–	1-Vinyl-2-pyrrolidinone polymers, iodine complex [PVP-I]	up to 10.0 % (w/w, aqueous)	reduced significantly
completely consumed	O=C(c1ccccc1)c1ccc2n1CCC2C(=O)O (stereo not drawn) [Ketorolac]	–	–
